≈ marks a conversion by molar mass, not a printed value. Read-outs that look alike come from different tables or passages of the source.
Experiments:
S. aureus NTCC 12973 = experiment: MIC broth microdilution assay; assay type: cell-based, Staphylococcus aureus; settings: 24 h, read-out: MIC S. aureus (Gram positive)
Procedure: (§1) Antibacterial activity assay […]
(§2) MIC broth microdilution assay
(§3) 3 × 125 mL Erlenmeyer flasks, each filled with 12.5 mL MHBII, were inoculated with three different colonies of S. aureus NTCC 12973. 3 × 125 mL Erlenmeyer flasks, each filled with 12.5 mL BHI broth, were inoculated with three different colonies of E. faecium ATCC 19434. The cultures were incubated at 37 °C with shaking at 180 rpm for 16 h.
(§4) OD600 of ~2.5. The suspensions of S. aureus cultures were diluted 100-fold with MHBII while the E. faecium cultures were diluted 4-fold. The resultant suspensions were incubated for a further 3 h at 37 °C with shaking. […]
(§5) after 3 h. Stock solutions of the title compounds were prepared in the requisite broth from 100 mM stocks in DMSO with the exception of carbenicillin, which was from a 100 mM stock in water and vancomycin from a 10 mM stock in DMSO. 15 × 96 well plates were primed with concentration gradients of the analytes and carbenicillin as shown in Figure S60 for S. aureus. 15 × 96 well plates were primed with the concentration […]
(§6) μL per well of the relevant bacterial culture in the requisite broth to 100 μL per well.
Plates were then incubated at 37 °C for 24 h before reading OD600 on a BMG Clariostar […]
Figure S50: Dose response profiles of the title compounds against S. aureus.
(§7) (1 picture or pasted object on this page, not shown here)

[1] = system: Escherichia coli K12 ATCC 10798; experiment: Rapid screen broth microdilution assay; assay type: cell-based; settings: rapid screen without replicates, 24 h, read-out: MIC E. coli (Gram negative)
Procedure: (§8) Antibacterial activity assay
(§9) Rapid screen broth microdilution assay
(§10) 5 × 125 mL Erlenmeyer flasks, each filled with 12.5 mL Mueller Hinton broth II (MHBII), were inoculated with Klebsiella pneumoniae ATCC 13883, Acinetobacter baumanii ATCC 17978, Psuedomonas aeruginosa ATCC BAA-47, Staphylococcus aureus […]
(§11) with 12.5 mL BHI broth was inoculated with Enterococcus faecium ATCC 19434. The cultures were incubated at 37 °C with shaking at 180 rpm for 16 h. The suspensions were diluted 100-fold with the requisite broth (E. faecium: 4-fold) and the resultant suspensions incubated for a further 3 h at 37 °C with shaking. […]
(§12) of 0.8–1.2 after 3 h. Stock solutions of the title compounds were prepared in the requisite broth from 100 mM stocks in DMSO with the exceptions of carbenicillin, which was from a 100 mM stock in water and ciprofloxacin from a 10 mM stock in DMSO.
(§13) 6 × 96 well plates were primed with a concentration gradient of the analytes from 200 to 3.13 µM, carbenicillin from 200 to 3.13 µM and ciprofloxacin from 10 to 0.16 µM. The cells were diluted 100-fold to an OD600 of 0.01. All plates were then inoculated with 50 μL per well bacterial culture in the requisite broth to 100 μL per well. Plates were then incubated at 37 °C for 24 h before reading OD600 on a BMG Clariostar platereader. […]

[2] = system: Klebsiella pneumoniae ATCC 13883; experiment: Rapid screen broth microdilution assay; assay type: cell-based; settings: rapid screen without replicates, 24 h, read-out: MIC K. pnuemoniae (Gram negative)
Procedure: as §8, §9, §10, §11, §12, §13

[3] = system: Psuedomonas aeruginosa ATCC BAA-47; experiment: Rapid screen broth microdilution assay; assay type: cell-based, Pseudomonas aeruginosa; settings: rapid screen without replicates, 24 h, read-out: MIC P. aeruginosa (Gram negative)
Procedure: as §8, §9, §10, §11, §12, §13

[4] = system: Acinetobacter baumanii ATCC 17978; experiment: Rapid screen broth microdilution assay; assay type: cell-based, Acinetobacter baumannii; settings: rapid screen without replicates, 24 h, read-out: MIC A. baumannii (Gram negative)
Procedure: as §8, §9, §10, §11, §12, §13

[5] = LogP by shake-flask method (n-octanol/phosphate buffer)
Procedure: using the "shake-flask" method.[6],[7] In short, phosphate buffer (50 mM, pH 7.4) was saturated with n-octanol by shaking a 1:1 mixture of both solution on a laboratory shaker for 72 h, after which the phases were separated. Stock solutions of each complex were then prepared in dimethylsulfoxide at a concentration of 10 mM. […]
(§14) solution with a concentration of 100 µM. From this solution, 1000 µL were transferred into an Eppendorf tube and mixed with 1000 µL of n-octanol. After shaking for 15 min and centrifugation (5 min, 6000 rpm), the two phases were carefully separated, and the contact layer discarded. Then, the absorbance of each phase was recorded with an Agilent 8453 UV/Vis spectrometer.
as §14, with “2 mL solution with” for “solution with”, “1000 µL phosphate buffer. After shaking” for “1000 µL of n-octanol. After shaking”, “rpm), the phases were” for “rpm), the two phases were”

E. faecium ATCC 19434 = experiment: MIC broth microdilution assay; assay type: cell-based, Enterococcus faecium; settings: three colonies, 24 h; for MIC: read-out: MIC E. faecium (Gram positive)
Procedure: as §1, §2, §3, §4, §5, §6

[6] = system: BEASB2, HaCat, RPE1, HCT116 and HeLa cell lines; experiment: Cell viability, summary over all cell lines studied; assay type: cell-based, human; settings: summary of Table 3, 48 h; for IC50: read-out: IC50 values, range over all cell lines studied
Procedure: (§15) To determine the relative viability, after incubation cells were fixed and stained with DAPI and the number of nuclei per well determined using a CeligoTM Image Cytometer (Figure S52 to S60). […] page 43: Cell viability studies Compound cytotoxicity was tested simultaneously on five representative cell lines […] All cells were cultured in DMEM Glutamax without pyruvate with 10% fetal bovine serum and 1% penicillin/streptomycin (Gibco). Cells were incubated with the compound for 24 or 48 h […] The tested concentration range for each compound was […] The required […] Greiner CELLSTAR® microplates) using the Echo 550 Acoustic Liquid Handler and wells were back-filled with DMSO when required to keep a final DMSO concentration […] Next, 50 μL of cell solution was added to the compound-containing wells using the Integra® […] Bulk dispenser. Cell solutions were prepared to get 5000 […] cells per well for hTERT RPE-1, and 5000 (24 h)/2500 (48 h) cells per well for BEAS- […] After incubation, cells were fixed with 4% PFA (Merck, […]), permeabilized with […] DAPI (Merck, 10236276001). Viable cells were counted using 377 nm excitation and 447 nm emission filters on the CeligoTM Image Cytometer. The number of nuclei per well was determined using the Direct Cell Count analysis from the CeligoPro Sofware […] All conditions were performed in triplicate. Staurosporine (Cambridge Bioscience, s7600) was used as a positive control and DMSO only as a negative control. The percentage of cell viability was normalized to the DMSO-only control and […] logistic curve with the scipy.optimize.curve_fit function. S43

[7] = system: HCT116 (colorectal cancer) cells; experiment: Cell viability (DAPI nuclei count); assay type: cell-based, human; settings: 48 h
Procedure: as §15

[8] = system: HeLa (cervical cancer) cells; experiment: Cell viability (DAPI nuclei count); assay type: cell-based, human; settings: 48 h
Procedure: as §15

[9] = system: HaCat (non-cancer skin) cells; experiment: Cell viability (DAPI nuclei count); assay type: cell-based, human; settings: 48 h
Procedure: as §15

[10] = system: RPE1 (retinal pigment epithelial cells); experiment: Cell viability (DAPI nuclei count); assay type: cell-based, human; settings: 48 h
Procedure: as §15

[11] = system: BEAS2B (non-cancer lung) cells; experiment: Cell viability (DAPI nuclei count); assay type: cell-based, human; settings: 48 h
Procedure: as §15

avidin = molecular target: T1, avidin (Gallus gallus, UniProt P02701); experiment: HABA/avidin assay; assay type: binding; settings: titration of HABA/avidin mixture, absorbance at 500 nm
T1 construct: purchased SIGMA-ALDRICH A9275
T1 sequence (P02701 25-152): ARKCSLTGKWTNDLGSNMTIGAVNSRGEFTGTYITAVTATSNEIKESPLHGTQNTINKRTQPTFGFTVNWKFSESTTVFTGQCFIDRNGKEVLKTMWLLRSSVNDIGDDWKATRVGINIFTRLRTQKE
Procedure: properties towards avidin using the HABA assay.[8] A mixture of avidin (6.8 μM, SIGMA-ALDRICH: A9275) and 4'-hydroxyazobenzene-2-carboxylic acid (HABA, 0.3 mM, SIGMA-ALDRICH: H5126) was dissolved in 50 mM sodium phosphate buffer (20 mL, pH 7.4) and allowed to equilibrate for 24 h at 4 °C. Stock solutions of each compound were prepared in dimethyl sulfoxide at a concentration of 1.1 mM. The […]
to the prepared avidin/HABA mixture (1 mL) at room temperature at 5–10 min intervals […]
absorbance then recorded with an Agilent 8453 UV/Vis spectrometer. The formation of the adduct was indicated by a decrease in the absorbance at 500 nm due to the displacement of HABA from the avidin. By plotting -ΔA500 nm vs. the molar concentration ratio c(compound):c(avidin), the binding stoichiometry of the compound to avidin was determined.

streptavidin = streptavidin (Streptomyces avidinii, UniProt P22629); experiment: Isothermal titration calorimetry (ITC) with streptavidin; assay type: binding; settings: 25 °C, 10 mM HEPES + 2% DMSO, read-out: dissociation constant (Kd) to streptavidin
Sequence of streptavidin (P22629 25-183, species assumed): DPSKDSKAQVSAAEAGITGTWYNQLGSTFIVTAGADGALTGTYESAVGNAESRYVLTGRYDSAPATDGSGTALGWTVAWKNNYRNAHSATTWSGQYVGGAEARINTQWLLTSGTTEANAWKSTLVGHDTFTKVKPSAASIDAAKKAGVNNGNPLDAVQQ
Procedure: Isothermal titration calorimetry
Streptavidin (20 µM in 10 mM HEPES plus 2% DMSO) was titrated stepwise with 2 uL injections of the compound (200 µM in 10 mM HEPES + 2% DMSO) at 25 °C, using a Malvern MicroCal PEAQ-ITC. Raw thermograms (top panels) and the binding isotherm from the integrated thermogram (bottom panels) were fit using the One Set of Sites model in the MicroCal PEAQ-ITC analysis software. Circles indicate the integrated heat, and the curve represents the best fit.
Figure S46: Isothermal titration calorimetry measurements of 5.
as §7

Row | Molecule | LogP ([5]; pH 7.4) | MIC (S. aureus NTCC 12973; three colonies) [µM] | MIC E. faecium (Gram positive) (E. faecium ATCC 19434) [µM] | IC50 [6] [µM] | IC50 [7] [µM] | IC50 [8] [µM] | IC50 [9] [µM] | IC50 [10] [µM] | IC50 [11] [µM] | MIC [1] [µM] | MIC [2] [µM] | MIC [3] [µM] | avidin binding in HABA assay (result in words) (avidin) | MIC [4] [µM] | MIC (E. faecium ATCC 19434) [µM] | also measured
1 | CC1(C)S[C@@H]2[C@H](NC(=O)C(C(=O)O)c3ccccc3)C(=O)N2[C@H]1C(=O)O (stereo partly drawn) [Carbenicillin, reference compound] |  |  |  |  |  |  |  |  |  |  |  |  |  |  |  | MIC (S. aureus NTCC 12973; Staphylococcus aureus, NTCC12973, three colonies): 12.5 µM (≈ 4.73 µg/mL); MIC ([1]; Escherichia coli, ATCC10798): 12.5 µM (≈ 4.73 µg/mL)
2 | O=C(O)c1cn(C2CC2)c2cc(N3CCNCC3)c(F)cc2c1=O [Ciprofloxacin, reference compound] |  |  |  |  |  |  |  |  |  |  |  |  |  |  |  | MIC ([2]; Klebsiella pneumoniae, ATCC13883): < 0.16 µM; MIC ([3]; Pseudomonas aeruginosa, ATCCBAA47): 100 µM (≈ 33.1 µg/mL); MIC ([4]; Acinetobacter baumannii, ATCC17978): 0.31 µM (≈ 0.103 µg/mL)
3 | CC(=O)c1n[n]([Au][PH](c2ccccc2)(c2ccccc2)c2ccccc2)nc1-c1ccccc1 [Compound 11, [Au(triazolatoC6H5,COCH3)(PPh3)]] | highly lipophilic^a | 2.5 | 0.625 to 5 | 2 to 8 | 5.5 | 3.5 | 6.1 | 2.7 | 2.5 | >200 | >200 | >200 | non-specific protein binding | 100 |  | 
4 | COC(=O)c1n[n]([Pt][c]2c(-c3ccccn3)cccc2-c2ccccn2)nc1C(=O)OC [Compound 13] | highly lipophilic^a | 200 |  |  | > 50 | > 50 | > 50 | > 50 |  | >200 | >200 | >200 | non-specific protein binding | >200 | >200 | IC50 values, range over all cell lines studied [6]: did not show any biological activity
5 | O=C1N[C@H]2[C@H](CS[C@H]2CCCCC(=O)c2n[n]([Pt][c]3c(-c4ccccn4)cccc3-c3ccccn3)nc2-c2ccccc2)N1 [Compound 14, [Pt(triazolatoC6H5,biotin)(dpb)]] |  | 12.5 | 5 to 10 |  | 9.4 | 8.2 | 10.2 | 7.4 | 6.7 | >200 | >200 | >200 |  | >200 |  | LogP ([5]; shake-flask method, n-octanol/phosphate buffer 50 mM pH 7.4): highly lipophilic^a
6 | COC(=O)c1n[n]([Ir+][c]2ccccc2-c2ccccn2)nc1C(=O)OC.F[P-](F)(F)(F)(F)F.c1ccc(-c2cccc(-c3ccccn3)n2)nc1 [Compound 17] | -1.02 | >200 |  | > 35 | > 50 | > 50 | > 50 | 35 |  | >200 | >200 | >200 | non-specific protein binding | >200 | >200 | 
7 | [Au(triazolatoC6H5,biotin)(PPh3)] [Compound 12] |  | 1.25 | 0.625 to 2.5 | 2 to 8 | 7.2 | 3.8 | 6.6 | 3.6 | 2.7 | >200 | >200 | >200 |  | 50 |  | 
8 | [Ir(triazolatoC6H5,biotin)(ppy)(terpy]PF6 [Compound 18] |  | 100 |  | > 35 | > 50 | > 50 | > 50 | 39.7 |  | >200 | >200 | >200 |  | >200 | 100 | Kd (streptavidin): 0.045 µM
